Laboratory results: DBAASP
Converted amounts (≈) assume the structure as drawn.

Columns and labels:
Experiment in all cases: ≥ marks a high value that may be exact or a test limit, other limits are often not marked, values filed in µg/mL are converted to µM
[1] = system: Acinetobacter baumannii ATCC 19606
Escherichia coli D31 = system: Escherichia coli D31
[2] = system: Pseudomonas aeruginosa ATCC 10145
[3] = system: Staphylococcus aureus ATCC 27660
[4] = system: Pseudomonas aeruginosa 253
[5] = system: Pseudomonas aeruginosa 910
[6] = system: Pseudomonas aeruginosa 919
[7] = system: Pseudomonas aeruginosa PAO1
[8] = system: Candida albicans ATCC 2002
[9] = system: Candida albicans ATCC 90028
[10] = system: Candida parapsilosis ATCC 22019
[11] = system: Enterobacter cloacae ATCC 13047
[12] = system: Enterococcus faecalis ATCC 29212
Escherichia coli 37 = system: Escherichia coli 37
[13] = system: Escherichia coli ATCC 25922
[14] = system: Klebsiella pneumoniae ATCC 700603
Klebsiella pneumoniae = system: Klebsiella pneumoniae
[15] = system: Pseudomonas aeruginosa ATCC 27853
[16] = system: Pseudomonas aeruginosa CMCCB 1010
Pseudomonas aeruginosa = system: Pseudomonas aeruginosa
Shigella dysenteriae = system: Shigella dysenteriae
Staphylococcus aureus 37 = system: Staphylococcus aureus 37
[17] = system: Staphylococcus aureus ATCC 25923
[18] = system: Cryptococcus neoformans ATCC 208821
[19] = system: Staphylococcus aureus ATCC 43300
[20] = system: Staphylococcus aureus SH1000
[21] = system: Bacillus subtilis DSM 347
[22] = system: Escherichia coli DSM 1116
[23] = system: Franconibacter helveticus DSM 18390
[24] = system: Staphylococcus xylosus DSM 20267
[25] = system: Acinetobacter baumannii 7226/16
[26] = system: Escherichia coli ESBL 521/17
Escherichia coli ML-35p = system: Escherichia coli ML-35p
[27] = system: Klebsiella pneumoniae ESBL 344/17
[28] = system: Pseudomonas aeruginosa 522/17
[29] = system: Staphylococcus aureus 1399/17
[30] = system: Staphylococcus aureus ATCC 33591
[31] = system: Staphylococcus aureus SG511
[32] = system: Aspergillus oryzae NBRC 100959
[33] = system: Candida viswanathii NBRC 10321
[34] = system: Escherichia coli NBRC 3972
[35] = system: Micrococcus luteus NBRC 3333
[36] = system: Staphylococcus epidermidis NBRC 12993
[37] = system: Klebsiella pneumoniae E406-17
[38] = system: Pseudomonas aeruginosa E411-17
[39] = system: Staphylococcus aureus M838-17

## C[C@H](N)C(=O)N[C@@H](C)C(=O)N[C@@H](Cc1c[nH]c2ccccc12)C(=O)N[C@@H](CCCCN)C(=O)N[C@@H](CCCCN)C(=O)N[C@@H](C)C(=O)N[C@@H](C)C(=O)N[C@@H](CCCCN)C(=O)N[C@@H](CCCCN)C(=O)N[C@@H](C)C(=O)N[C@@H](C)C(=O)N[C@@H](CCCCN)C(=O)N[C@@H](CO)C(=O)N[C@@H](C)C(=O)N[C@@H](CCCCN)C(=O)N[C@@H](CCCCN)C(=O)N[C@@H](C)C(=O)NCC(N)=O [AAWKKAAKKAAKSAKKAG]
[1]
  MIC: > 15 µM
Escherichia coli D31
  MIC: 15 µM (≈ 27.2 µg/mL)
[2]
  MIC: 15 µM (≈ 27.2 µg/mL)
[3]
  MIC: 15 µM (≈ 27.2 µg/mL)

## CC[C@H](C)[C@H](NC(=O)[C@@H](N)Cc1ccccc1)C(=O)N[C@@H](CCCCN)C(=O)N[C@@H](CCCN=C(N)N)C(=O)N[C@@H](CCCCN)C(=O)N[C@@H](CO)C(=O)N[C@@H](CCCN=C(N)N)C(=O)N[C@@H](Cc1c[nH]c2ccccc12)C(=O)N[C@@H](Cc1c[nH]c2ccccc12)C(=O)N[C@@H](CCCCN)C(=O)N[C@@H](Cc1c[nH]c2ccccc12)C(=O)N[C@@H](CCCN=C(N)N)C(=O)N[C@H](C(N)=O)[C@@H](C)O [FIKRKSRWWKWRT]
[4]
  MIC: 11.3 µM (≈ 21.2 µg/mL)
[5]
  MIC: 8 µM (≈ 15 µg/mL)
[6]
  MIC: ≥ 32 µM
[7]
  MIC: 4 µM (≈ 7.51 µg/mL)

## CC[C@H](C)[C@H](NC(=O)[C@@H](NC(=O)[C@@H]1CCCN1C(=O)[C@H](CC(C)C)NC(=O)[C@@H](N)Cc1ccccc1)[C@@H](C)CC)C(=O)NCC(=O)N[C@@H](CCCCN)C(=O)N[C@@H](CC(C)C)C(=O)N[C@@H](CC(C)C)C(=O)N[C@@H](CO)C(=O)NCC(=O)N[C@@H](CC(C)C)C(=O)N[C@@H](CC(C)C)C(=O)O [FLPIIGKLLSGLL]
[8]
  MIC: 7.23 µM (≈ 10 µg/mL)
[9]
  MIC: 7.23 µM (≈ 10 µg/mL)
[10]
  MIC: 1.81 µM (≈ 2.5 µg/mL)
[11]
  MIC: 1.81 µM (≈ 2.5 µg/mL)
[12]
  MIC: 3.61 µM (≈ 5 µg/mL)
Escherichia coli 37
  MIC: 14.5 µM (≈ 20 µg/mL)
[13]
  MIC: 1.81 µM (≈ 2.5 µg/mL)
[14]
  MIC: 7.23 µM (≈ 10 µg/mL)
Klebsiella pneumoniae
  MIC: 28.9 µM (≈ 40 µg/mL)
[15]
  MIC: 28.9 µM (≈ 40 µg/mL)
[16]
  MIC: 7.23 µM (≈ 10 µg/mL)
Pseudomonas aeruginosa
  MIC: 3.61 µM (≈ 5 µg/mL)
Shigella dysenteriae
  MIC: 14.5 µM (≈ 20 µg/mL)
Staphylococcus aureus 37
  MIC: 3.61 µM (≈ 5 µg/mL)
[17]
  MIC: 0.867 µM (≈ 1.2 µg/mL)

## CC[C@H](C)[C@H](NC(=O)[C@H](CC(=O)O)NC(=O)[C@H](Cc1ccccc1)NC(=O)[C@H](CC(C)C)NC(=O)CN)C(=O)N[C@H](C(=O)N[C@@H](CCCCN)C(=O)N[C@@H](CCCCN)C(=O)N[C@H](C(=O)N[C@H](C(=O)NCC(=O)N[C@@H](C)C(=O)N[C@@H](CC(C)C)C(=O)NCC(N)=O)C(C)C)C(C)C)C(C)C [GLFDIVKKVVGALG]
[1]
  MIC: > 23 µM
[9]
  MIC: 23 µM (≈ 32.5 µg/mL)
[18]
  MIC: 23 µM (≈ 32.5 µg/mL)
[13]
  MIC: > 23 µM
[14]
  MIC: > 23 µM
[15]
  MIC: > 23 µM
[19]
  MIC: > 23 µM
[20]
  MIC: ≥ 50 µM

## CC(C)C[C@H](NC(=O)[C@H](CCCCN)NC(=O)[C@H](CC(C)C)NC(=O)[C@H](CCCCN)NC(=O)[C@H](CC(C)C)NC(=O)[C@H](CCCCN)NC(=O)[C@H](CC(C)C)NC(=O)[C@H](CCCCN)NC(=O)[C@H](CC(C)C)NC(=O)[C@H](CCCCN)NC(=O)[C@H](CC(C)C)NC(=O)[C@H](CCCCN)NC(=O)[C@H](CC(C)C)NC(=O)[C@@H](N)CCCCN)C(N)=O [KLKLKLKLKLKLKL]
[21]
  MIC: 2.34 µM (≈ 4 µg/mL)
[22]
  MIC: 4.69 µM (≈ 8 µg/mL)
[23]
  MIC: 2.34 µM (≈ 4 µg/mL)
[24]
  MIC: 2.34 µM (≈ 4 µg/mL)

## CC[C@H](C)[C@H](NC(=O)[C@H](CCCN=C(N)N)NC(=O)[C@@H](NC(=O)[C@@H]1CCCN1C(=O)[C@H](Cc1c[nH]c2ccccc12)NC(=O)[C@@H]1CCCN1C(=O)[C@H](CCCN=C(N)N)NC(=O)[C@H](CCCN=C(N)N)NC(=O)[C@H](Cc1ccccc1)NC(=O)[C@@H]1CCCN1C(=O)[C@H](CC(C)C)NC(=O)[C@H](CCCN=C(N)N)NC(=O)[C@H](Cc1ccccc1)NC(=O)[C@@H](N)CCCN=C(N)N)[C@@H](C)CC)C(=O)N[C@@H](Cc1cnc[nH]1)C(=O)N1CCC[C@H]1C(=O)N1CCC[C@H]1C(=O)N1CCC[C@H]1C(=O)N[C@@H](Cc1ccccc1)C(=O)N[C@@H](Cc1ccc(O)cc1)C(=O)N1CCC[C@H]1C(=O)N[C@@H](Cc1c[nH]c2ccccc12)C(=O)N1CCC[C@H]1C(=O)N[C@@H](Cc1ccccc1)C(=O)N[C@@H](CCCN=C(N)N)C(=O)N[C@@H](CCCN=C(N)N)C(=O)N[C@@H](Cc1ccccc1)C(=O)N[C@@H](CC(C)C)C(=O)O [RFRLPFRRPWPIRIHPPPFYPWPFRRFL]
[25]
  MIC: 11.3 µM (≈ 42.4 µg/mL)
[26]
  MIC: 4 µM (≈ 15 µg/mL)
Escherichia coli ML-35p
  MIC: 4 µM (≈ 15 µg/mL)
[27]
  MIC: 8 µM (≈ 30 µg/mL)
[28]
  MIC: 16 µM (≈ 60 µg/mL)
[29]
  MIC: 8 µM (≈ 30 µg/mL)
[30]
  MIC: 8 µM (≈ 30 µg/mL)
[31]
  MIC: 0.5 µM (≈ 1.87 µg/mL)

## CC[C@H](C)[C@H](NC(=O)[C@H](CCSC)NC(=O)[C@H](CCCN=C(N)N)NC(=O)[C@H](CCCN=C(N)N)NC(=O)[C@H](CC(C)C)NC(=O)[C@H](Cc1ccc(O)cc1)NC(=O)[C@H](CCCN=C(N)N)NC(=O)[C@H](CCCCN)NC(=O)[C@@H](NC(=O)[C@H](CCCCN)NC(=O)[C@@H](N)CCCN=C(N)N)[C@@H](C)CC)C(=O)N[C@@H](Cc1c[nH]c2ccccc12)C(=O)O [RKIKRYLRRMIW]
[32]
  MIC: 7.27 µM (≈ 12.5 µg/mL)
[33]
  MIC: 14.5 µM (≈ 25 µg/mL)
[34]
  MIC: ≥ 116 µM
[35]
  MIC: 14.5 µM (≈ 25 µg/mL)
[36]
  MIC: 14.5 µM (≈ 25 µg/mL)

## CC(C)C[C@H](NC(=O)[C@H](Cc1c[nH]c2ccccc12)NC(=O)[C@H](Cc1c[nH]c2ccccc12)NC(=O)[C@H](Cc1c[nH]c2ccccc12)NC(=O)[C@H](CCCN=C(N)N)NC(=O)[C@H](CCCN=C(N)N)NC(=O)[C@H](CCCN=C(N)N)NC(=O)[C@@H](N)CCCN=C(N)N)C(N)=O [RRRRWWWL]
[37]
  MIC: ≥ 50 µM
[38]
  MIC: 12.5 µM (≈ 16.4 µg/mL)
[39]
  MIC: 6.25 µM (≈ 8.21 µg/mL)
